Read-outs that look alike come from different tables or passages of the source.
Assays:
Conditions in all cases: 20 mM Tris pH 8, 100 mM NaCl
[1] = biological target: T1, AfuA (Actinobacillus pleuropneumoniae, UniProt A3N294); test: isothermal titration calorimetry; assay type: binding
T1 construct: pET26b, periplasmic expression in E. coli (osmotic shock), N-terminal 6xHis tag cleaved by thrombin
Excerpt: isothermal titration calorimetry on AfuA

[2] = biological target: AfuA (Actinobacillus pleuropneumoniae, UniProt A3N294, S64D)
Sequence of AfuA (Actinobacillus pleuropneumoniae, UniProt A3N294, S64D) (A3N294 28-346 S64D): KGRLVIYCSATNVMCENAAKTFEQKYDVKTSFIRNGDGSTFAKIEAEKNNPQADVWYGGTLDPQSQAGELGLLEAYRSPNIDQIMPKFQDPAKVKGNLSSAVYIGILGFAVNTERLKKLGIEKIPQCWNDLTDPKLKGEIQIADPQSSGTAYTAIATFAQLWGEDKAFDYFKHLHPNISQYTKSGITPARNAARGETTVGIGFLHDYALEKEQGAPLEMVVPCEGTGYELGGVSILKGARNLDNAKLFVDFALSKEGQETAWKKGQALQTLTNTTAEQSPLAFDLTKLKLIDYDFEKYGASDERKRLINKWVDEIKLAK

[3] = biological target: AfuA (Actinobacillus pleuropneumoniae, UniProt A3N294, T177A)
Sequence of AfuA (Actinobacillus pleuropneumoniae, UniProt A3N294, T177A) (A3N294 28-346 T177A): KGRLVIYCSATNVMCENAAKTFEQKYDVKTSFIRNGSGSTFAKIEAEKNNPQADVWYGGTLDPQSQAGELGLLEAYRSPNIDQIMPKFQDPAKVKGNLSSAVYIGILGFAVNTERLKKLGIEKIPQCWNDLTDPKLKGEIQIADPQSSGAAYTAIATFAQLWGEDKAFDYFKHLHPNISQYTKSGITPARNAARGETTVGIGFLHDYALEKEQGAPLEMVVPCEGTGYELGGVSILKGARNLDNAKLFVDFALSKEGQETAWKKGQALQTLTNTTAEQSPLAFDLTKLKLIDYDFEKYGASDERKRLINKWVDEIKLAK

[4] = biological target: AfuA (Actinobacillus pleuropneumoniae, UniProt A3N294, S64A)
Sequence of AfuA (Actinobacillus pleuropneumoniae, UniProt A3N294, S64A) (A3N294 28-346 S64A): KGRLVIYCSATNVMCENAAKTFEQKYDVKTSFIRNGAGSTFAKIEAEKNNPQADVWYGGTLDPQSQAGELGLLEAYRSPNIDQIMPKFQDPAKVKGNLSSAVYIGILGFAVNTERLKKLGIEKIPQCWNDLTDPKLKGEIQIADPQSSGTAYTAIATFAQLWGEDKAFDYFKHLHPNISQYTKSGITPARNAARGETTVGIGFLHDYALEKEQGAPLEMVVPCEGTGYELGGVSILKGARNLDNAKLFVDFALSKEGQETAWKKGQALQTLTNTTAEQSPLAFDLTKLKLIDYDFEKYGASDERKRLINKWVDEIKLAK

[5] = biological target: T2, C. rodentium AfuA (Citrobacter rodentium, UniProt D2TKU7); test: isothermal titration calorimetry; assay type: binding
T2 construct: recombinant AfuA; construct details only in supplement
T2 sequence (D2TKU7 entry or part of it): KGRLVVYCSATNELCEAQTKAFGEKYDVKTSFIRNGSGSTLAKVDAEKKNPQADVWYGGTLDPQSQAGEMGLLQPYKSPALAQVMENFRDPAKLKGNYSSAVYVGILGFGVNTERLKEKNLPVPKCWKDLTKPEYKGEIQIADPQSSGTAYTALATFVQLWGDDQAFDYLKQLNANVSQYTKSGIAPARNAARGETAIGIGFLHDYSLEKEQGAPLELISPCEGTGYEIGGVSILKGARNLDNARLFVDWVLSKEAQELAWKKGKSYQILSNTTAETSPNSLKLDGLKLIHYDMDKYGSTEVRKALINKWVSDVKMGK
Excerpt: isothermal titration calorimetry on C. rodentium AfuA | These amounts exceed the Kd of C. rodentium AfuA for G6P or F6P

T1 sequence (A3N294 entry or part of it): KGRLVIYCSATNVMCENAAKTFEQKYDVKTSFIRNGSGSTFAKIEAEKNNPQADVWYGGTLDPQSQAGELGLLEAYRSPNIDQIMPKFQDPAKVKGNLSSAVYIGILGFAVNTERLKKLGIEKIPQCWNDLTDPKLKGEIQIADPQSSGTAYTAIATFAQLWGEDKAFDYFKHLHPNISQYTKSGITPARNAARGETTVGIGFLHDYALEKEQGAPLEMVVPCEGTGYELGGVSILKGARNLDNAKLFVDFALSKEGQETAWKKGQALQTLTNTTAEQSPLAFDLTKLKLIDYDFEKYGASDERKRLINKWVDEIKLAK

Compound: O=P(O)(O)OC[C@H]1OC(O)(CO)[C@@H](O)[C@@H]1O (some centres unmarked) [Fructose-6-phosphate]
- Kd ([1]; read-out: Kd): 0.008 ± 0.001 µM

Compound: O=P(O)(O)OC[C@H]1OC(O)[C@H](O)[C@@H](O)[C@@H]1O (some centres unmarked) [Glucose-6-phosphate]
- Kd ([1]; read-out: Kd): 0.023 ± 0.004 µM
- Kd [2]: 5.5 ± 0.9 µM
- Kd [3]: 3.3 ± 0.2 µM
- Kd [4]: 0.9 ± 0.1 µM
- Kd [5]: 0.164 ± 0.094 µM

Compound: O=P(O)(O)OC[C@H]1OC(O)[C@@H](O)[C@@H](O)[C@@H]1O (some centres unmarked) [Mannose-6-phosphate]
- Kd ([1]; read-out: Kd): 0.96 ± 0.15 µM

Compound: O=P(O)(O)OC[C@@H](O)[C@H]1OC(O)(CO)[C@@H](O)[C@@H]1O (some centres unmarked) [Sedoheptulose-7-phosphate]
- Kd [1]: 0.057 ± 0.022 µM

— article PMC4546632, “Active Transport of Phosphorylated Carbohydrates Promotes Intestinal Colonization and Transmission of a Bacterial Pathogen” (PLoS Pathogens, 2015)
